Laboratory results: patent publication US6057450A, “Derivatives of pyroglutaminic acid preparation process and applications” (Totiam, S.L., priority 1994, dated 2000)

Tests used:
[1] = test system: Swiss mice; assay: single-dose intraperitoneal toxicity in mice; details: i.p. single dose; 236 (Cl) 800 mcg/Kg, 278 (Ac) 4.2 mg/Kg, 320 (Ac) 4.8 mg/Kg, respectively
[2] = test system: circulating peripheral blood lymphocytes; assay: in vivo lymphocyte kinetics / response in asymptomatic rabbits; parameters: species or system New Zealand's albino, giant rabbits
Description: (§1) The pharmacodynamic study to assess the leuko-lymphocyte kinetics has been carried out in New Zealand's albino, giant, female, adult, asymptomatic (healthy) rabbits. The blood samples with EDTA (ethylene-diamino-tetraAcetic acid), non-coagulable, for the periodical weekly controls, have been obtained by aseptic puncture from the marginal vein of the outer ear. The count and the differential cytologic survey of the white series has been routinely performed in a "Coulter" (Coulter Cientifica, S.A., STKs model) differential analyzer, within the two hours following the extraction.
Hereinafter, there is a summary of the most significant results of the preclinical protocols which include different experimental conditions, different BRM-BLAS products and doses which vary in vary of their concentration of the product, frequency and number. […]
This study comprises three concatenated experimental situations. The first one is focused on the vicissitudes of the leuko-lymphocyte kinetics occurred during a pause, "first" moment, that takes place months after several doses, mainly of BRM-BLAS 236 (Cl) compounds and includes 30 individual assessments (6 of the group) days 0 to 39. The second "second" moment, is centered on the successive changes occurred after the administration on the 39th day of an intravenous dose of 8 u/Kg (0.6 mcg/Kg) of the BRM-BLAS 278 (Ac) compounds and includes a total of 25 individual assessments (5 of the group), days 43rd to 68th. The third one, moments "third" to "seventh", analyzes the changes induced after the intravenous administration on the 68th day of 22 u/Kg (1.8 mcg/Kg) of BRM-BLAS 320 (Ac) compounds and includes […] (6 of the group×5 times), days 75th to 287th of the study. The assessment prior to the last dose, the lymphocyte average of which is the lowest of the group during the study, has been selected as the common baseline (100%) for reference of the comparative analysis between the assessments.

[3] = test system: human lymphocytes; assay: in vitro non-specific lymphoproliferative response (RLP-I) to PHA, human lymphocyte cultures; type: cell-based; details: for RLP-I B < A, number of witness models / RLP-I B < A, percentage of witness models / RLP-I B > A, number of witness models / RLP-I B > A, percentage of witness models: Table V, PHA + BRM-BLAS (B) versus PHA (A); for number of cases with RLP-I B > A in 33-50% of the witness models / number of cases with RLP-I B > A in 67% of the witness models / number of cases with RLP-I B > A in 100% of the witness models / percentage of cases with RLP-I B > A in 33-50% of the witness models / percentage of cases with RLP-I B > A in 67% of the witness models / percentage of cases with RLP-I B > A in 100% of the witness models: Table VI, intragroup individual analysis
Method: The "in vitro" lymphocyte response has been assessed in samples of circulating and peripheral venous blood from asymptomatic blood donor adults of both sexes. In general, the lymphocyte cultures include in each case six experimental models called witnesses, and incorporate progressive doses between 0.25-6.0 units (20-500 ng) of the BRM-BLAS compounds and PHA. The RLP-I of each one has been morphologically determined and is expressed in absolute values of lymphoblasts/10,000.
Systematically, in all the cases it has been tabulated the RLP-I to the PHA, basal, of the PHA models; to the PHA+BRM-BLAS, of the "witness" models and the maximum individual response of the witness models (RMC), in each case.

[4] = test system: circulating peripheral blood leukocytes; assay: in vivo leukocyte kinetics / response in asymptomatic rabbits; parameters: species or system New Zealand's albino, giant rabbits
Description: as §1
Hereinafter, there is a summary of the most significant results of the preclinical protocols which include different experimental conditions, different BRM-BLAS products and doses which vary in vary of their concentration of the product, frequency and number.
The leuko-lymphocyte mean values of the group run parallelly during the study, in general above the respective basal values before the treatment to which they return in the last two assessments. They reach the higher ones 7, 16 and 20 days after the first, second and third dose, FIG. 12, FIG. 13 and Table VIII (assessments: 3, 8 and 13).
A total number of 225 individual assessments and 45 of the group assessments have been performed, grouped in four evolutive periods moments. The "first" one includes the 40 individual assessments (8 of the group) after the two first doses, days 0 to 43rd; the "second", the 85 (17 of the group) after the third, fourth and fifth doses, days 46th to 147th; the "third", the first 50 (10 of the group) after the sixth, days 153rd to 213th, and the "fourth", the last 50 (10 of the group), days 220th to 282nd, respectively. The assessment of the group prior to the third dose (43rd day), the lymphocyte mean of which has been the lowest during the survey, has been taken as the natural reference baseline for the comparative analysis of punctual and grouped data.
This trail is subsequent to the protocol previously described and corresponds to the "fifth" moment of the global study, FIG. 14 and FIG. 15.
After the subcutaneous administration of a dose of 30 u/Kg (2.1 mcg/Kg) of the BRM-BLAS 278 (Cl) compounds 137 days after the sixth dose of the BRM-BLAS 320 (Ac) compounds, in the presence of high figures of the lymphocyte mean of the group, at the "fourth" moment, such figures were specifically exceeded by the 4th and 5th punctual weekly assessments of the "fifth" moment, 24th (184%) and 31st (180%) days, respectively, FIG. 14. Globally, 28% of the assessment exceed basal values by one or two standard deviations; 57% in three, and the difference is statistically in all of them. The resulting mean of the data gathered for the "fifth" moment with a 158% of the basal values, exceed those of the four previous moments, and the difference is statistically significant compared with those of the "first", "second" and "third", and exceeds that of the "first" in more than one standard deviation, FIG. 15 and (Table IX). […]

[5] = test system: patients with cancer; details: patients with favourable prognosis factors; cited from earlier work
[6] = three i.v. doses 5 U/Kg (300 ng/Kg) every 21 days, assessment 8, 37th day
[7] = three i.v. doses 5 U/Kg every 21 days
[8] = progressive i.v. doses, "second" moment
[9] = progressive i.v. doses, grouped results
[10] = single i.v. high dose 22 u/Kg (1.8 mcg/Kg)

Molecule: NC1(C[n+]2ccccc2)CC(C(=O)O)NC1=O (stereo not shown) [BRM-BLAS 236 (Cl), 4-ammonium-4-(1-pyridiniomethyl) pyroglutamic acid dichloride]
- tolerance / toxicity, single dose [1]: perfectly tolerated without evidences of toxicity
- highest lymphocyte mean value versus basal [2, 6]: 157%
- assessments with lymphocyte mean above basal by more than three standard deviations [2, 7]: 10%
- assessments with lymphocyte mean above basal by more than two standard deviations [2, 7]: 20%
- assessments with lymphocyte mean above basal over the standard deviation [2, 7]: 75%
- assessments with statistically significant difference of lymphocytes versus basal [2, 7]: 35%
- RLP-I B < A, number of witness models [3]: 20 Num.
- RLP-I B < A, percentage of witness models [3]: 30%
- RLP-I B > A, number of witness models [3]: 46 Num.
- RLP-I B > A, percentage of witness models [3]: 70%
- number of cases with RLP-I B > A in 33-50% of the witness models [3]: 11 Num.
- number of cases with RLP-I B > A in 67% of the witness models [3]: 9 Num.
- number of cases with RLP-I B > A in 100% of the witness models [3]: 2 Num.
- percentage of cases with RLP-I B > A in 33-50% of the witness models [3]: 100%
- percentage of cases with RLP-I B > A in 67% of the witness models [3]: 82%
- percentage of cases with RLP-I B > A in 100% of the witness models [3]: 18%
- highest leukocyte mean value versus basal [4, 6]: 169%
- assessments with leukocyte mean above basal by more than three standard deviations [4, 7]: 5%
- assessments with leukocyte mean above basal by more than two standard deviations [4, 7]: 20%
- assessments with leukocyte mean above basal over the standard deviation [4, 7]: 55%
- assessments with statistically significant difference of leukocytes versus basal [4, 7]: 70%
- leukocyte response [4, 7]: increase in the number of leukocytes which affect granulocytes as well as lymphocytes in the same way
- time to higher leuko-lymphocyte mean values after first dose ([4]; three i.v. doses 5 U/Kg every 21 days, first dose): 7 days
- leuko-lymphocyte mean of "first" period versus "fourth" period and basal ([4]; three i.v. doses 5 U/Kg every 21 days, grouped results): practically by two standard deviations
- time to higher leuko-lymphocyte mean values after second dose ([4]; three i.v. doses 5 U/Kg every 21 days, second dose): 16 days
- time to higher leuko-lymphocyte mean values after third dose ([4]; three i.v. doses 5 U/Kg every 21 days, third dose): 20 days

Molecule: CC(=O)NC1(C[n+]2ccccc2)CC(C(=O)O)N(C(C)=O)C1=O (stereo not shown) [BRM-BLAS 320 (Ac), 1-acetyl-4-acetylamino-4-(1-pyridiniomethyl) pyroglutamic acid acetate]
- tolerance / toxicity, single dose [1]: perfectly tolerated without evidences of toxicity
- animals with individual lymphocyte mean "fourth" versus "first" moment higher by three standard deviations ([2]; progressive i.v. doses): 60%
- animals with individual lymphocyte mean "fourth" versus "first" moment higher by two standard deviations ([2]; progressive i.v. doses): 40%
- lymphocyte response ([2]; progressive i.v. doses 5-30 units/Kg (0.4-2.4 mcg/Kg)): selective and significant increase in the number of lymphocytes that starts after the third dose and reaches its maximum level after the sixth
- assessments with lymphocyte mean exceeding one standard deviation, "second" moment [2, 8]: 41%
- assessments with statistically significant lymphocyte difference, "second" moment [2, 8]: 43%
- highest average lymphocyte value versus basal ([2]; progressive i.v. doses, day 241st of the study, "fourth" moment): 178%
- assessments exceeding mean lymphocyte basal values by more than one, two or three standard deviations, "third" moment ([2]; progressive i.v. doses, days 153rd to 213th): 80%
- assessments exceeding mean lymphocyte basal values by more than one, two or three standard deviations, "fourth" moment ([2]; progressive i.v. doses, days 220th to 282nd): 100%
- grouped lymphocyte mean versus baseline, "first" period [2, 9]: 110%
- grouped lymphocyte mean versus baseline, "fourth" period [2, 9]: 152%
- grouped lymphocyte mean versus baseline, "second" period [2, 9]: 120%
- grouped lymphocyte mean versus baseline, "third" period [2, 9]: 131%
- cases with individual lymphocyte mean at "seventh" exceeding "first" moment by one, two or three standard deviations ([2]; single i.v. high dose 22 u/Kg): 80%
- lymphocyte mean versus baseline from the 53rd day [2, 10]: surpasses the baseline by two or three standard deviations from the 53rd day
- onset of lymphocyte increase after the dose [2, 10]: twenty days after the high dose
- highest lymphocyte mean versus basal ([2]; single i.v. high dose 22 u/Kg (1.8 mcg/Kg), 88th and 202nd days after dose): 212%
- duration of statistically significant lymphocyte increase ([2]; single i.v. high dose 22 u/Kg (1.8 mcg/Kg), from 53rd day): statistically significant uninterruptedly, until the 213th day
- selectivity for lymphocytes versus granulocytes and monocytes ([2]; single i.v. high dose 22 u/Kg, FIG. 18 and FIG. 19): sustained and selective immunomodulating activity or effect of the BRM-BLAS 320 (Ac) compounds on subpopulations of lymphocytes without detriment to the number of granulocytes and monocytes
- RLP-I B < A, number of witness models [3]: 17 Num.
- RLP-I B < A, percentage of witness models [3]: 21%
- RLP-I B > A, number of witness models [3]: 65 Num.
- RLP-I B > A, percentage of witness models [3]: 70%
- number of cases with RLP-I B > A in 33-50% of the witness models [3]: 14 Num.
- number of cases with RLP-I B > A in 67% of the witness models [3]: 9 Num.
- number of cases with RLP-I B > A in 100% of the witness models [3]: 5 Num.
- percentage of cases with RLP-I B > A in 33-50% of the witness models [3]: 100%
- percentage of cases with RLP-I B > A in 67% of the witness models [3]: 64%
- percentage of cases with RLP-I B > A in 100% of the witness models [3]: 36%
- animals with leukocyte mean at "fourth" exceeding "first" moment by two or three standard deviations ([4]; progressive i.v. doses): 40%
- assessments with leukocyte mean exceeding basal by one standard deviation ([4]; progressive i.v. doses): 4.4%
- leukocyte punctual assessments versus basal ([4]; progressive i.v. doses): the difference is never became statistically significant
- leukocyte mean versus basal, 227th day ([4]; progressive i.v. doses, 227th day): 129%
- leukocyte mean versus basal, 241st day ([4]; progressive i.v. doses, 241st day): 136%

Molecule: IFN-α
- effect on tumor metastases [5]: can cause the regression of tumor metastases
